row,Compound,melting point [°C]
1,c1ccc(-c2ccc(-n3cccc3)cc2)cc1,190 to 192
2,O=C1NCCc2ccc(OCCCCN3CCN(c4cccc5c4CCC5)CC3)nc2N1,70 to 72
3,COc1cccc(C(=O)C=C(SC)SC)c1,119 to 121
4,CCOC(=O)Cc1nc(C)n2c1CN=C(c1ccccc1Cl)c1cc(Cl)ccc1-2,143 to 154
5,COC(=O)Cc1cccc2c(=O)cc(C3=CCCCC3)oc12,137 to 138
6,O=C(Nc1nn(-c2ccccc2)cc1C(=O)O)OCc1cc2cc(-c3ccccc3)ccc2o1,221
7,COc1ccc(C(=O)NCCN2CCC(Oc3ccc(Cl)c(Cl)c3)CC2)cc1,110 to 112
8,O=C1c2ccccc2C(=O)N1CC(=O)N(CC(=O)N1CCc2ccccc21)c1ccccc1,230
9,COc1cccc(Sc2cccc([N+](=O)[O-])c2C#N)c1,144 to 147
10,COc1ccc(-c2ocnc2-c2cc(OC)c(O)c(OC)c2)cc1O,144 to 146
11,CCOC(=O)C(CC)c1ccc(N[C@@H](CCC(N)=O)C(=O)O)cc1 (stereo partly specified),157
12,O=c1[nH]ncc(Cl)c1NCCN1CCN(c2cccc(C(F)(F)F)c2)CC1,220 to 223
13,Nc1nc(N)c2cc(Oc3ccc(Cl)cc3)ccc2n1,226 to 228
14,O=C(Nc1ccc(C(=O)N2C=C3CC=CN3Cc3ccccc32)cc1)c1ccccc1F,257 to 260
15,O=c1[nH]c(=O)c2cc(N3CCCCC3)ccc2[nH]1,> 280
16,Cn1c(/C=C/[N+](=O)[O-])cc2cccc(F)c21,153 to 156
17,CC(C)(NCC(F)(F)CN)C(CCn1ccnc1[N+](=O)[O-])=NO,112 to 114
18,CCCCCOC1CCN(S(=O)(=O)C=Cc2ccccc2)C1=O (stereo unspecified),66 to 68
19,NS(=O)(=O)c1cnccc1C1=NOCCO1,163 to 164
20,O=C(c1ccccc1)C1CNC(=S)C1 (stereo unspecified),110 to 112
21,CO/C=C(/C(=O)OC)c1ccccc1Oc1cccc(O)c1,117 to 118
22,CC(C)(S)CN(Cc1ccccc1)C(=O)CCC(=O)O,123 to 126
23,CCOC(=O)C(C)(C)Oc1ccc(C=Cc2ccccc2)cc1,55 to 65
24,Nc1cccc(-c2ccc(CCN(CC3CCCCC3)CC3CCCCC3)cc2)n1,75 to 85
25,O=C(Cn1c(=O)sc2ncc(Cl)cc21)N1CCN(CCO)CC1,198 to 200
26,COc1c(C)c2c(c(NC(=O)N(C)C)c1C/C=C(\C)CCC(=O)O)C(=O)OC2,170 to 190

row,Compound,melting point [°C]
1,COC(=O)[C@@H](Cc1ccccc1)Oc1c(Br)cc(-c2c3ccccc3c(Br)c3sc(C)c(C)c23)cc1C1CCCC1,167 to 168
2,O=C(c1ccccc1)c1nc2cc(C(c3ccccc3)n3ccnc3)ccc2[nH]1 (stereo unspecified),223
3,N#CC(C(=O)c1ccc(Cl)cc1)=C1CCCN1Cc1ccc(Cl)nc1,142 to 144
4,Cn1c(CNCC(C)(C)O)cc2cc(NC(=O)c3ccc(OCC4CC4)cc3)ccc21,188 to 189
5,CNc1nc(N)nc2c1ncn2C1OC(CO)C(O)C1F (stereo unspecified),172
6,Oc1ccc(Br)cc1-c1ccc2nonc2c1,179 to 181
7,C[C@H]1CCCC(C)(C)[C@@H]1[C@H](O)c1ccc(OC(F)(F)F)c(F)c1,60.3 to 62.2
8,Cc1nc2c(cc1C(=O)NC(=N)N)CCCCC2COS(=O)(=O)O (stereo unspecified),231 to 233
9,CCOCc1nc2c(N)nc3ccccc3c2n1CC1(C(N)=O)CCCCC1,221 to 223
10,CCC(=O)Nc1ccc2ncnc(Nc3cccc(Br)c3)c2c1,265 to 266
11,CC1=NC(NC(=O)Nc2cccc(Br)c2)C(=O)N(CC(=O)N2CC3CCC(CC3)C2)c2c(C)cccc21 (stereo unspecified),168 to 171
12,COc1cc(Nc2c(C#N)cnc3c2C=C2N=CN=C2C3)cc(OC)c1OC,> 260
13,CCOC(=O)N1CCC(Nc2ccc(Cl)cc2N)CC1,150
14,CCOC(=O)c1c(C)nc2[nH]ncc2c1OCC,180 to 182
15,COc1ccc(-c2cccc3c2/C(=C/c2ccc[nH]2)C(=O)N3)cc1,222 to 223
16,O=C1CCC(C2CCCCC2)CC1C(=S)Nc1ccccc1 (stereo unspecified),150
17,Cc1nccn1-c1ccc(COc2cccc(C3(C(N)=O)CCOCC3)c2)cc1,183 to 186
18,C[C@@H](n1cnc2cc(-c3ccc(F)cc3)sc2c1=O)[C@](O)(Cn1cncn1)c1ccccc1F,213 to 225
19,CC1(C)OC(=S)N(c2cc(F)cc(C(F)(F)F)c2)c2ccccc21,204 to 206
20,O=c1ccc2cccc(Oc3cc(-c4ccc(C(F)(F)F)cc4)ncn3)c2[nH]1,312
21,CC1(C)C(=O)Nc2ccc(-c3ccc(C#N)s3)cc21,255 to 256
22,CCOc1ccc(S(=O)(=O)N2CCNCC2)cc1-c1nc2c(OC)cccc2c(=O)[nH]1,163 to 165
23,COc1ccc(Cl)c(Oc2c(COCC(O)CO)nc(N3CCOCC3)nc2NS(=O)(=O)c2ccc(C(C)C)cn2)c1 (racemic),116
24,COc1cc2ncnc(N3CCN(C(=S)Nc4cccc(C(C)C)c4)CC3)c2cc1OC,169 to 171
25,CO/C=C(\C(=O)OC)c1ccccc1C,68 to 70
26,CCOC(=O)c1cn(C2CC2)c2c(OC(F)F)c(F)c(F)c(N)c2c1=O,295 to 296

row,Compound,melting point [°C]
1,CC(C)c1nc(N(C)S(C)(=O)=O)nc(-c2ccc(F)cc2)c1/C=C/C=O,86.5
2,CC(=O)OCCCN1CCC(CNC(=O)[C@@H]2CCCN2S(=O)(=O)c2ccc(Cl)c(COc3cccc4c(-n5cccn5)cc(C)nc34)c2Cl)CC1,89
3,Cc1cc(-c2[nH]c3c([N+](=O)[O-])cccc3c2C)cc(C)c1O,178 to 179
4,CC(=O)Oc1ccc2c3c1OC1C(OS(=O)(=O)C(F)(F)F)CCC4(O)C(C2)N(C)CCC314 (stereo unspecified),125 to 126
5,CCCCc1ncc(/C=C(\Cc2cccs2)C(=O)O)n1Cc1cccc([N+](=O)[O-])c1,182 to 184
6,COc1ccc(COc2nc(Cl)c(C(C)C)c(OCc3ccc(OC)cc3)n2)cc1,69 to 70
7,O=S(=O)(c1nc[nH]n1)c1ccc(C(F)(F)F)cc1Cl,222 to 224
8,COC(=O)c1cnc2c3cc(NC(=O)C4CCCCC4)ccc3ncn2c1=O,250 to 251
9,COC(=O)c1cc(=O)n(-c2c(Cl)cc(C(F)(F)F)cc2Cl)[nH]1,245 to 246
10,Cc1cn(-c2nc(Nc3cccc(NS(C)(=O)=O)c3)nc3[nH]cnc23)cn1,298 to 301
11,O=C1NCCc2ccccc2N1OCCCCN1CCN(c2cccc(C3CC3)n2)CC1,155 to 156
12,O[C@H](CCc1cccnc1)COc1ccc(-c2ccc(Cl)cc2)cc1,117 to 118
13,CCOC(=O)N1Cc2ccccc2P1(C)=O (stereo unspecified),102 to 104
14,CCNC(=O)c1c([Si](C)(C)C)ccc(C)c1Cl,120 to 122
15,C[C@H](O)Cn1c(=O)c(Oc2ccc(F)cc2F)cc2cnc(NC(C)(C)CO)nc21,182 to 184
16,CC(=O)OC1CSC(Oc2cc(-c3cccnc3)cnc2F)C(OC(C)=O)C1OC(C)=O (stereo unspecified),67 to 68
17,Cn1cnc(S(=O)(=O)NCCCN2CCOCC2)c1,148 to 149
18,COC(=O)C1CCc2cc(C(=O)c3cccs3)c(O)cc21 (stereo unspecified),183 to 184
19,CCN(CC)CCNC(=NC#N)NCCCSc1nccc(NC(N)=NCC(F)(F)F)n1,76 to 80
20,O=C(c1ccc(Cl)cc1Cl)C1(c2cccnc2)CC1,83
21,COC(=O)CCSC(SCCC(=O)OC)c1cccc(C=Cc2nc3cc(Cl)ccc3o2)c1,66 to 67
22,COc1cccc(COc2cc3c(cc2OC)C(=O)N(Cc2cccc(OC)c2)CC3)c1,85 to 86
23,Cc1c(Cc2cccc(C(F)(F)F)c2)sc2c(-c3cc(F)cc(C(=O)NCC(N)=O)c3)cccc12,46 to 47
24,"COc1ccc(CC2c3cc(O)c(OC)cc3CCN2CC2CC2)cc1O (single isomer, unassigned; (+))",70 to 81
25,O=C1Nc2cccc(I)c2C(=O)N2CC[C@@H]12,186 to 187
26,CC(C)(C)[N+]([O-])=Cc1c[nH]c(-c2ccccc2)n1,209 to 210

row,Compound,melting point [°C]
1,O=C(O)CCc1ccc(O)c([N+](=O)[O-])c1,80 to 82
2,CCOP(C)(=O)CC(CCc1ccccc1)NS(=O)(=O)c1ccc(C)cc1 (stereo unspecified),107 to 108
3,Cc1c(-c2ccc3oc(=O)n(C)c3c2)nc2c(O)cccn12,> 280
4,CCOCCn1c(C)nc2c(N)ncc(C)c21,129 to 130
5,COc1ccc(OC)c(C(=O)CC(O)C(=O)O)c1 (stereo unspecified),89
6,CCOC(=O)c1cccc(NC(=O)c2ccc(OC)c(N)c2)c1,144 to 146
7,CSCC(O)(Cn1cncn1)c1ccc(Cl)cc1Cl (stereo unspecified),117 to 119
8,CC(C)(C)c1cc(CC(C)(C)C2SCCS2)cc(C(C)(C)C)c1O,119
9,O=c1ccc2c(-n3cnc(CO)c3)nccc2[nH]1,259 to 261
10,COc1ccc(OC)c2c1CCC(C#N)C2C#N (stereo unspecified),126 to 127
11,CC(C)c1ccc(C(=O)N(C(=N)N)C(=O)c2ccc(C(C)C)c(S(C)(=O)=O)c2)cc1S(C)(=O)=O,218 to 221
12,Cc1nc2cnc3cc(Cl)ccc3c2s1,181 to 183
13,Cc1nc(-n2cnn(CCOc3ccc(F)cc3)c2=O)sc1C(=O)NCc1cccnc1,154 to 155
14,Cc1c[nH]c(C)c1C(C)(C)C,70 to 71
15,COc1cccc(OC)c1C(=O)Nc1nnc(-c2nc3ccccc3s2)s1,> 260
16,COc1ccc(Cl)cc1C(O)C(N)=O (stereo unspecified),121 to 123
17,NC(=O)CC(C(N)=O)n1cccc1 (stereo unspecified),158 to 165
18,Cc1ncccc1CC(=NC#N)NC1CCc2cc(F)ccc21 (stereo unspecified),148 to 149
19,O=C(CCl)Nc1ccc2c(c1NC(=O)CCl)C(=O)c1ccccc1C2=O,254 to 255
20,O=C1c2ccccc2C(=O)N1Cc1ccc(/C=C/C(c2cc(Cl)c(Cl)c(Cl)c2)C(F)(F)F)c2ccccc12 (stereo unspecified),158 to 160
21,CC1(C)C(=O)Nc2cc(O)c([N+](=O)[O-])cc21,244 to 247
22,CC(C)Cn1cnc2c1c1ccccc1n1nnnc21,208 to 212
23,CCOC(=O)c1cccc(OCc2ccc3ccccc3c2)c1,45 to 46.5
